# US9102591B2, “Benzamides” (H. Lundbeck A/S, priority 2012, dated 2015)
# Target: P2X7 receptor (Homo sapiens (Human), UniProt Q99572)
# Assay: P2X7 FLIPR assay (BzATP-stimulated calcium fluorescence, antagonist IC50)
# Format: cell-based
# Details: not given
# In short: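 Cells expressing P2X7 receptor (human, rat or mouse), plated 24 hours earlier in low-serum medium, loaded with Fluo-4 NW dye (30 min 37° C, 30 min room temperature).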
# Sequence of P2X7 receptor (Q99572 whole entry): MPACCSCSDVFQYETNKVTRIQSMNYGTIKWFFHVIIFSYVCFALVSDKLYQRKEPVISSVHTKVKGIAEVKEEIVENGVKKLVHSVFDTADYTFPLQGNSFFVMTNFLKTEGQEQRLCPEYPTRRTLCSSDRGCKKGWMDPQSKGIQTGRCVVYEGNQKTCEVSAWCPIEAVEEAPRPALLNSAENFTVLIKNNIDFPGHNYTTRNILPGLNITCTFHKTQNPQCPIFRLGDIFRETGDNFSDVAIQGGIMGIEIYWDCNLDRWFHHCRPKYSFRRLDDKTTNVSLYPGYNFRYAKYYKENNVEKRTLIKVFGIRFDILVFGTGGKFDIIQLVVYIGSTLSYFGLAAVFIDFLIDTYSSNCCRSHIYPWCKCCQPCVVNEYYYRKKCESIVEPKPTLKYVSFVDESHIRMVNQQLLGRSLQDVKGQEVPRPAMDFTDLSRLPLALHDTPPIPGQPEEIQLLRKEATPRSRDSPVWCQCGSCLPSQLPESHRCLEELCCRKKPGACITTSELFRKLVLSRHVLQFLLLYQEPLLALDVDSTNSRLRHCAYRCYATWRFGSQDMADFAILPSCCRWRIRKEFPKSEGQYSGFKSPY
row,Structure (SMILES),IC50 [nM]
1,"O=C(NCC(CC1(C(F)(F)F)CC1)c1ccc(C(F)(F)F)nc1)c1ccccc1Cl (single isomer, unassigned; (-)) [(−)2-chloro-N-[3-[1-(trifluoromethyl)cyclopropyl]-2-[6-(trif] [(−)2-chloro-N-[3-[1-(trifluoromethyl)cyclopropyl]-2-[6-(trifluoromethyl)-3-pyridyl]propyl]benzamide]",32
2,"O=C(NCC(CC1CC1)c1cnc(C(F)(F)F)nc1)c1cccc(F)c1Cl (single isomer, unassigned; (-)) [(−)2-chloro-N-[3-cyclopropyl-2-[2-(trifluoromethyl)pyrimidin] [(−)2-chloro-N-[3-cyclopropyl-2-[2-(trifluoromethyl)pyrimidin-5-yl]propyl]-3-fluoro-benzamide]",4.7
3,"COc1cccc(C(=O)NCC(CC2CC2)c2cnc(C(F)(F)F)nc2)c1Cl (single isomer, unassigned; (-)) [(−)2-chloro-N-[3-cyclopropyl-2-[2-(trifluoromethyl)pyrimidin] [(−)2-chloro-N-[3-cyclopropyl-2-[2-(trifluoromethyl)pyrimidin-5-yl]propyl]-3-methoxy-benzamide]",3.4
4,"O=C(NCC(CC1CC1)c1cnc(C(F)(F)F)nc1)c1ccccc1Cl (single isomer, unassigned; (-)) [(−)2-chloro-N-[3-cyclopropyl-2-[2-(trifluoromethyl)pyrimidin] [(−)2-chloro-N-[3-cyclopropyl-2-[2-(trifluoromethyl)pyrimidin-5-yl]propyl]benzamide]",3.2
5,"O=C(NCC(CC1CC1)c1ccc(C(F)F)nc1)c1cccc(F)c1Cl (single isomer, unassigned; (-)) [(−)2-chloro-N-[3-cyclopropyl-2-[6-(difluoromethyl)-3-pyridyl] [(−)2-chloro-N-[3-cyclopropyl-2-[6-(difluoromethyl)-3-pyridyl]propyl]-3-fluoro-benzamide]",19
6,"O=C(NCC(CC1CC1)c1ccc(C(F)F)nc1)c1ccccc1Cl (single isomer, unassigned; (-)) [(−)2-chloro-N-[3-cyclopropyl-2-[6-(difluoromethyl)-3-pyridyl] [(−)2-chloro-N-[3-cyclopropyl-2-[6-(difluoromethyl)-3-pyridyl]propyl]benzamide]",17
7,"O=C(NCC(CC1CC1)c1ccc(C(F)(F)F)nc1)c1cccc(C(F)(F)F)c1Cl (single isomer, unassigned; (-)) [(−)2-chloro-N-[3-cyclopropyl-2-[6-(trifluoromethyl)-3-pyridy] [(−)2-chloro-N-[3-cyclopropyl-2-[6-(trifluoromethyl)-3-pyridyl]propyl]-3-(trifluoromethyl)benzamide]",110
8,"COc1cccc(C(=O)NCC(CC2CC2)c2ccc(C(F)(F)F)nc2)c1Cl (single isomer, unassigned; (-)) [(−)2-chloro-N-[3-cyclopropyl-2-[6-(trifluoromethyl)-3-pyridy] [(−)2-chloro-N-[3-cyclopropyl-2-[6-(trifluoromethyl)-3-pyridyl]propyl]-3-methoxy-benzamide]",4.2
9,"CS(=O)(=O)c1ccc(Cl)c(C(=O)NCC(CC2CC2)c2ccc(C(F)(F)F)nc2)c1 (single isomer, unassigned; (-)) [(−)2-chloro-N-[3-cyclopropyl-2-[6-(trifluoromethyl)-3-pyridy] [(−)2-chloro-N-[3-cyclopropyl-2-[6-(trifluoromethyl)-3-pyridyl]propyl]-5-methylsulfonyl-benzamide]",8.1
10,"O=C(NCC(CC1CC1)c1ccc(C(F)(F)F)nc1)c1c(F)cccc1Cl (single isomer, unassigned; (-)) [(−)2-chloro-N-[3-cyclopropyl-2-[6-(trifluoromethyl)-3-pyridy] [(−)2-chloro-N-[3-cyclopropyl-2-[6-(trifluoromethyl)-3-pyridyl]propyl]-6-fluoro-benzamide]",2.1
11,"CC(CNC(=O)c1cccc(F)c1Cl)(CC1CC1)c1cnc(C(F)(F)F)nc1 (single isomer, unassigned; (-)) [(−)2-chloro-N-[3-cyclopropyl-2-methyl-2-[2-(trifluoromethyl)] [(−)2-chloro-N-[3-cyclopropyl-2-methyl-2-[2-(trifluoromethyl)pyrimidin-5-yl]propyl]-3-fluoro-benzamide]",34
12,"CC(CNC(=O)c1ccccc1Cl)(CC1CC1)c1cnc(C(F)(F)F)nc1 (single isomer, unassigned; (-)) [(−)2-chloro-N-[3-cyclopropyl-2-methyl-2-[2-(trifluoromethyl)] [(−)2-chloro-N-[3-cyclopropyl-2-methyl-2-[2-(trifluoromethyl)pyrimidin-5-yl]propyl]benzamide]",17
13,"COc1cccc(C(=O)NCC(CC2CC2)c2cnc(C(F)(F)F)nc2)c1C (single isomer, unassigned; (-)) [(−)N-[3-cyclopropyl-2-[2-(trifluoromethyl)pyrimidin-5-yl]pro] [(−)N-[3-cyclopropyl-2-[2-(trifluoromethyl)pyrimidin-5-yl]propyl]-3-methoxy-2-methyl-benzamide]",1.4
14,"O=C(NCC(CC1CC1)c1ccc(C(F)(F)F)nc1)c1c(F)cccc1F (single isomer, unassigned; (-)) [(−)N-[3-cyclopropyl-2-[6-(trifluoromethyl)-3-pyridyl]propyl]]",130
15,"O=C(NCC(CC1CC1)c1ccc(C(F)(F)F)nc1)c1ccccc1Cl (single isomer, unassigned; (-)) [Example 4b, (−)-2-Chloro-N-[3-cyclopropyl-2-[6-(trifluoromethyl)-3-pyridyl]propyl]benzamide]",2.3
16,O=C(NCC(CC1CC1)c1ccc(C(F)(F)F)nc1)c1cccc(F)c1Cl (stereo not drawn) [2(−)-chloro-N-[3-cyclopropyl-2-[6-(trifluoromethyl)-3-pyridy] [2(−)-chloro-N-[3-cyclopropyl-2-[6-(trifluoromethyl)-3-pyridyl]propyl]-3-fluoro-benzamide],2.9
17,"O=C(NCC1(c2cccnc2)CCCC1)c1cccc(Cl)c1Cl [2,3-Dichloro-N-(1-pyridin-3-yl-cyclopentylmethyl)-benzamide]",2200

row,Structure (SMILES),IC50 [nM]
1,"COc1ccc(C2(CNC(=O)c3cccc(Cl)c3Cl)CCCC2)cc1 [2,3-Dichloro-N-[1-(4-methoxy-phenyl)-cyclopentylmethyl]-benzamide]",260
2,"Cc1ccc(C(CNC(=O)c2cccc(Cl)c2Cl)CC(C)C)cn1 (centres unmarked) [2,3-Dichloro-N-[4-methyl-2-(6-methyl-pyridin-3-yl)-pentyl]-benzamide]",1
3,"Cc1ccc(C(CNC(=O)c2cccc(C)c2C)CC(C)C)cn1 (centres unmarked) [2,3-Dimethyl-N-[4-methyl-2-(6-methyl-pyridin-3-yl)-pentyl]-benzamide]",4.4
4,"O=C(NCC(c1ccccc1)c1ccc(Cl)cc1)c1cccc(Cl)c1Cl (centres unmarked) [2,3-dichloro-N-(2-(4-chlorophenyl)-2-phenylethyl)benzamide]",120
5,"O=C(NCC(CC1CC1)c1cncc(Cl)c1)c1cccc(Cl)c1Cl (centres unmarked) [2,3-dichloro-N-(2-(5-chloropyridin-3-yl)-3-cyclopropylpropyl)benzamide]",5.5
6,"O=C(NCC(c1ccc(C(F)(F)F)nc1)C1CC1)c1cccc(Cl)c1Cl (centres unmarked) [2,3-dichloro-N-(2-cyclopropyl-2-(6-(trifluoromethyl)pyridin-3-yl)ethyl)benzamide]",120
7,"O=C(NCC(c1ccccc1)c1ccnnc1)c1cccc(Cl)c1Cl (centres unmarked) [2,3-dichloro-N-(2-phenyl-2-pyridazin-4-yl-ethyl)benzamide]",94
8,"O=C(NCC1(c2ccc(C3CC3)nc2)CCC(F)(F)CC1)c1cccc(Cl)c1Cl [2,3-dichloro-N-((1-(6-cyclopropylpyridin-3-yl)-4,4-difluorocyclohexyl)methyl)benzamide]",1.3
9,"Cc1ncc(C2(CNC(=O)c3cccc(Cl)c3Cl)CCOC2)cn1 (centres unmarked) [2,3-dichloro-N-((3-(2-methylpyrimidin-5-yl)tetrahydrofuran-3-yl)methyl)benzamide]",15
10,"Cc1cn(C2(CNC(=O)c3cccc(Cl)c3Cl)CCC(F)(F)CC2)cn1 [2,3-dichloro-N-((4,4-difluoro-1-(4-methyl-1H-imidazol-1-yl)cyclohexyl)methyl)benzamide]",90
11,"O=C(NCC1(c2cncc(F)c2)CCC(F)(F)CC1)c1cccc(Cl)c1Cl [2,3-dichloro-N-((4,4-difluoro-1-(5-fluoropyridin-3-yl)cyclohexyl)methyl)benzamide]",1.2
12,"O=C(NCC1(c2ccc(C(F)(F)F)nc2)CCC(F)(F)CC1)c1cccc(Cl)c1Cl [2,3-dichloro-N-((4,4-difluoro-1-(6-(trifluoromethyl)pyridin-3-yl)cyclohexyl)methyl)benzamide]",1.2
13,"COc1ccc(C2(CNC(=O)c3cccc(Cl)c3Cl)CCC(F)(F)CC2)cn1 [2,3-dichloro-N-((4,4-difluoro-1-(6-methoxypyridin-3-yl)cyclohexyl)methyl)benzamide]",0.96
14,"O=C(NCC1(c2ccc(Cl)cc2)CCOCC1)c1cccc(Cl)c1Cl [2,3-dichloro-N-((4-(4-chlorophenyl)tetrahydro-2H-pyran-4-yl)methyl)benzamide]",43
15,"O=C(NCC1(c2ccc(C(F)(F)F)nc2)CCOCC1)c1cccc(Cl)c1Cl [2,3-dichloro-N-((4-(6-(trifluoromethyl)pyridin-3-yl)tetrahydro-2H-pyran-4-yl)methyl)benzamide]",52
16,"Cc1ncc(C2(C(C)NC(=O)c3cccc(Cl)c3Cl)CCC(F)(F)CC2)cn1 (centres unmarked) [2,3-dichloro-N-[1-[4,4-difluoro-1-(2-methylpyrimidin-5-yl)cyclohexyl]ethyl]benzamide]",960
17,"Cc1ncc(C(CNC(=O)c2cccc(Cl)c2Cl)CC2(C(F)(F)F)CC2)cn1 (centres unmarked) [2,3-dichloro-N-[2-(2-methylpyrimidin-5-yl)-3-[1-(trifluorome] [2,3-dichloro-N-[2-(2-methylpyrimidin-5-yl)-3-[1-(trifluoromethyl)cyclopropyl]propyl]benzamide]",7.1

# Same assay, conditions: listed as (−)2-chloro-N-[3-cyclopropyl-2-(6-fluoro-3-pyridyl)propyl]benzamide
row,Structure (SMILES),IC50 [nM]
1,"O=C(NCC(CC1CC1)c1ccc(F)nc1)c1ccccc1Cl (single isomer, unassigned; (-)) [Example 4x, (−)-2-chloro-N-(3-cyclopropyl-2-(6-fluoropyridin-3-yl)propyl)benzamide]",16
